Experiment [1] concerns histone H3K23 acetylation in U-2 OS cells. Nature of the experiment: Histone H3 lysine 23 acetylation assay in U-2 OS cells (high content analysis). The experiment is classed as cell-based. As to conditions: Homo sapiens, U2OS, 24 hrs exposure, H3K23ac level. As for the experimental part: Assay B: Histone H3 lysine 23 Acetylation Assay
Compounds were tested for their capacity to suppress the histone H3K23 acetylation in the following high content analysis assay.
The cell line U-2 OS (ATCC HTB-96) was seeded at a density of 2000 cells per well in black 384 well cell culture/imaging microplates in 45 μl McCoy's 5A medium with […]. After overnight incubation in 37° C., 5% CO2 incubator, cells were then treated with a 9-point dilution series of compounds and a blank control group with medium containing 0.1% DMSO.
Following a 24 hrs exposure to the compounds, the cells were fixed with 4% immunohistochemical fixative for 20 mins at room temperature, washed with DPBS with 2% fetal bovine serum, and permed with Perm Buffer III for 30 min on ice, washed with DPBS with 2% fetal bovine serum. Then the cells were blocked with Odyssey blocking buffer containing 0.1% Tween 20. 20 ul Anti-Histone H3 (acetyl K23) antibody (Abcam, ab177275) in odyssey blocking buffer containing 0.1% Tween20 was added and incubated overnight at 4° C. After incubation, the cells were washed for 3 times and a secondary antibody Anti-rabbit IgG (H+L), F(ab′)2 Fragment (Alexa Fluor® 647 Conjugate) (CST, 4414S) were added into cells for one hour. The cells were washed and 1 ug/ml DAPI (Thermo, 62248) were added for 10 min. Then cells were washed and read on the PerkinElmer Operetta CLS high content analysis system. The nuclei were identified by DAPI and H3K23ac level was calculated from the Alexa Fluor 647 intensity in the nuclei. Inhibition rate of H3K23ac was calculated as the mean intensity of cells per well relative to blank controls on the same plate.

In experiment [2] the target is Recombinant human KAT6A protein (497-780) (Homo sapiens (Human), UniProt Q92794). Nature of the experiment: KAT6A biochemical TR-FRET assay. As to conditions: histone H4 peptide 2000 nM, AcCoA 300 nM, enzyme 5 nM. As for the experimental part: Enzymatic reactions of KAT6A and KAT6B were performed using Fluorescence Resonance Energy Transfer (TR-FRET) assay, which measures acetylation of a synthetic, biotinylated histone-H4 peptide by the KAT6A and KAT6B enzymes. Recombinant human KAT6A protein (497-780) were expressed in BL21 cell using an E. coli expression system. Recombinant human KAT6B protein (657-1069) was expressed in sf9 cell using a baculovirus expression system. […] Acetyl coenzyme A was purchased from Sigma-Aldrich (#A-2056).
Chain of Recombinant human KAT6A protein (497-780) (Q92794 497-780): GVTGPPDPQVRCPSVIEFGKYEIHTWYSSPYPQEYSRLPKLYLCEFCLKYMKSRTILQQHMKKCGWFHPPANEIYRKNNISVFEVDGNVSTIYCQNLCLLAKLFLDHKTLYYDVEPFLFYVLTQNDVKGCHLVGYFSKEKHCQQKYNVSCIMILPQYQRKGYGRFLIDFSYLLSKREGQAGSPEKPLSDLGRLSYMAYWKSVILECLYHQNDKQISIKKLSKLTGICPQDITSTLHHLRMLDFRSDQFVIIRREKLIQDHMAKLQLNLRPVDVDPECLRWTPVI
Testing for the inhibition activities of various compounds disclosed herein was carried out at room temperature in assay buffer containing 100 mM Tris/HCl Ph7.8, 15 mM NaCl, 0.01% chicken egg white albumin, 1 mM DTT and 0.01% Tween-20. Compounds in DMSO were dispensed into wells of a black, 384-well plate (Corning 4514) using ECHO555 (Beckman). The final concentration ranges of the test compounds were 0.0625-1,000 nM, 0.625-10,000 nM, or 0.313-5,000 nM. Five μL of KAT6A or KAT6B enzyme solution were added to wells, and the plate was incubated for 1 hour at room temperature (rt). After incubation for 1 hour at rt, 5 μL H4 and AcCoA substrate solutions were added to the wells to initiate reaction, and the plate was incubated. After 2 hours reaction, 5 μL detection reagent were added to the wells, and the plate was incubated for 2 hours. After two hours incubation, detection reagent containing 5 nM Anti-histone H4 antibody (ABCAM #ab177790), 100 μM formic acid (sigma #06473-100ML), 0.1 test/μL streptavidin-XL665 (PerkinElmer #610SAXLG), 0.05 test/μL PAb anti-rabbit IgG-Eu (PerkinElmer μ61PARKLA) was added to the wells. TR-FRET was measured on a microplate reader (PHERAstar FSX, BMG labtech). […] In Table 6, I≤5 nM, 5 nM<II≤50 nM.
(In TR-FRET formats the signal depends on donor and acceptor labels being close together.)

The target in experiment [3] is Recombinant human KAT6B protein (657-1069) (Homo sapiens (Human), UniProt Q8WYB5). Nature of the experiment: KAT6B biochemical TR-FRET assay. The following applies: histone H4 peptide 1000 nM, AcCoA 100 nM, enzyme 5 nM. As for the experimental part: Enzymatic reactions of KAT6A and KAT6B were performed using Fluorescence Resonance Energy Transfer (TR-FRET) assay, which measures acetylation of a synthetic, biotinylated histone-H4 peptide by the KAT6A and KAT6B enzymes. Recombinant human KAT6A protein (497-780) were expressed in BL21 cell using an E. coli expression system. Recombinant human KAT6B protein (657-1069) was expressed in sf9 cell using a baculovirus expression system. Histone H4 peptide (SEQ ID NO: 1—[…]-GGK-Biotin), which was used as substrate, was synthesized by GL Biochem, Shanghai, China. Acetyl coenzyme A was purchased from Sigma-Aldrich (#A-2056).
Chain of Recombinant human KAT6B protein (657-1069) (Q8WYB5 657-1069): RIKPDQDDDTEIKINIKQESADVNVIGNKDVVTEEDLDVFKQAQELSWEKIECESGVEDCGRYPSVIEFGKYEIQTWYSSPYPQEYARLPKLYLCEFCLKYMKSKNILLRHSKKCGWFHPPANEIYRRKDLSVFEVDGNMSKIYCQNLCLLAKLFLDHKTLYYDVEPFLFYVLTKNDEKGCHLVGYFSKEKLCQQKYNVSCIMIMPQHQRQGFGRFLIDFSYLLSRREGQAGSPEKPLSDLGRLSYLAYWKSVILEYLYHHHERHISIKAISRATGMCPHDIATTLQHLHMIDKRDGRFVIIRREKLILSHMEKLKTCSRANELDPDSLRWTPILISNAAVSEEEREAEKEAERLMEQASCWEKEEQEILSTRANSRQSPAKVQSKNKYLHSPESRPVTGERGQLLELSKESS
Testing for the inhibition activities of various compounds disclosed herein was carried out at room temperature in assay buffer containing 100 mM Tris/HCl Ph7.8, 15 mM NaCl, 0.01% chicken egg white albumin, 1 mM DTT and 0.01% Tween-20. Compounds in DMSO were dispensed into wells of a black, 384-well plate (Corning 4514) using ECHO555 (Beckman). The final concentration ranges of the test compounds were 0.0625-1,000 nM, 0.625-10,000 nM, or 0.313-5,000 nM. Five μL of KAT6A or KAT6B enzyme solution were added to wells, and the plate was incubated for 1 hour at room temperature (rt). After incubation for 1 hour at rt, 5 μL H4 and AcCoA substrate solutions were added to the wells to initiate reaction, and the plate was incubated. After 2 hours reaction, 5 μL detection reagent were added to the wells, and the plate was incubated for 2 hours. After two hours incubation, detection reagent containing 5 nM Anti-histone H4 antibody (ABCAM #ab177790), 100 μM formic acid (sigma #06473-100ML), 0.1 test/μL streptavidin-XL665 (PerkinElmer #610SAXLG), 0.05 test/μL PAb anti-rabbit IgG-Eu (PerkinElmer μ61PARKLA) was added to the wells. TR-FRET was measured on a microplate reader (PHERAstar FSX, BMG labtech). The IC50s were calculated based on inhibition of enzyme activity in the presence of increasing concentrations of test compounds, and the results are shown in Table 6. In Table 6, I≤5 nM, 5 nM<II≤50 nM.

15 molecules from patent US20250304535A1, “KAT6 Inhibitors” (BeiGene Switzerland GmbH, priority 2024, published 2025) can be followed below.

Take `COc1ccc(C(C)(C)C)nc1S(=O)(=O)NC(=O)c1ccc(Cn2cccn2)c(C(F)F)c1` [Example C36, 4-((1H-pyrazol-1-yl)methyl)-N-((6-(tert-butyl)-3-methoxypyridin-2-yl)sulfonyl)-3-(difluoromethyl)benzamide]: the half-inhibitory concentration (IC50) was no more than 10 nM in experiment [1], no more than 5 nM in experiment [2] and no more than 5 nM in experiment [3].

In the case of `C#Cc1cc(C(=O)NS(=O)(=O)c2cc(C(C)(C)C)ccc2OC)ccc1Cn1cccn1` [Example C15, 4-((1H-pyrazol-1-yl)methyl)-N-((5-(tert-butyl)-2-methoxyphenyl)sulfonyl)-3-ethynylbenzamide], the results for the IC50 in experiment [1], in experiment [2] and in experiment [3] were no more than 10 nM, no more than 5 nM and no more than 5 nM, respectively.

Take `COc1ccc(C(C)(C)C)nc1S(=O)(=O)NC(=O)c1ccc(Cn2cccn2)c(C2COC2)c1` [Example C19, 4-((1H-pyrazol-1-yl)methyl)-N-((6-(tert-butyl)-3-methoxypyridin-2-yl)sulfonyl)-3-(oxetan-3-yl)benzamid]: the IC50 in experiment [1] is 10 to 100 nM; in experiment [2] it was no more than 5 nM; in experiment [3] it was no more than 5 nM.

As for `COc1ccc(C23CC(C2)C3)nc1S(=O)(=O)NC(=O)c1ccc(Cn2cccn2)c(OC)n1` [Example C79, 5-((1H-pyrazol-1-yl)methyl)-N-((6-(bicyclo[1.1.1]pentan-1-yl)-3-methoxypyridin-2-yl)sulfonyl)-6-methoxypicolinamide], the half-inhibitory concentration (IC50) in experiment [1] is no more than 10 nM; in experiment [2], no more than 5 nM; in experiment [3], no more than 5 nM.

With `COc1ccc(C2(C)COC2)cc1S(=O)(=O)NC(=O)c1ccc(Cn2cccn2)c(OC)n1` [Example C75, 5-((1H-pyrazol-1-yl)methyl)-6-methoxy-N-((2-methoxy-5-(3-methyloxetan-3-yl)phenyl)sulfonyl) picolinamide], the IC50 in experiment [1] was no more than 10 nM; in experiment [2] it was no more than 5 nM; in experiment [3] it was no more than 5 nM.

Take `COc1cnc(C(C)(C)C)cc1S(=O)(=O)NC(=O)c1ccc(Cn2cccn2)c(OC)n1` [Example C72, 5-((1H-pyrazol-1-yl)methyl)-N-((2-(tert-butyl)-5-methoxypyridin-4-yl)sulfonyl)-6-methoxy-picolinamide]: the IC50 is no more than 10 nM in experiment [1], no more than 5 nM in experiment [2] and no more than 5 nM in experiment [3].

Consider `CCc1cc(C(=O)NS(=O)(=O)c2nc(C(C)(C)C)ccc2OC)ccc1Cn1cccn1` [Example C23, 4-((1H-pyrazol-1-yl)methyl)-N-((6-(tert-butyl)-3-methoxypyridin-2-yl)sulfonyl)-3-ethylbenzamide], for which the IC50 in experiment [1] is no more than 10 nM; in experiment [2] it was no more than 5 nM; in experiment [3] it was no more than 5 nM.

On to `C=Cc1cc(C(=O)NS(=O)(=O)c2cc(C(C)(C)C)ccc2OC)ccc1Cn1cccn1` [Example C4, 4-((1H-pyrazol-1-yl)methyl)-N-((5-(tert-butyl)-2-methoxyphenyl)sulfonyl)-3-vinylbenzamide], for which the IC50 was no more than 10 nM in experiment [1], no more than 5 nM in experiment [2] and no more than 5 nM in experiment [3].

As to `COc1ccc2c(c1S(=O)(=O)NC(=O)c1ccc(Cn3cccn3)c(C3CC3)n1)OC(C)(C)C2` [Example C46, 5-((1H-pyrazol-1-yl)methyl)-6-cyclopropyl-N-((6-methoxy-2,2-dimethyl-2,3-dihydrobenzofuran-7-yl)sulfonyl)picolinamide], the results for the half-maximal inhibitory concentration (IC50) in experiment [1], in experiment [2] and in experiment [3] were no more than 10 nM, no more than 5 nM and no more than 5 nM, respectively.

Consider `COc1ccc(C(C)(C)C)cc1S(=O)(=O)NC(=O)c1ccc(Cn2cccn2)c(OC)n1` [Example C40, 5-((1H-pyrazol-1-yl)methyl)-N-((5-(tert-butyl)-2-methoxyphenyl)sulfonyl)-6-methoxypicolinamide], for which the figures for the IC50 in experiment [1], in experiment [2] and in experiment [3] were no more than 10 nM, no more than 5 nM and no more than 5 nM, respectively.

For the molecule `COc1ccc(C(C)(C)C)nc1S(=O)(=O)NC(=O)c1ccc(Cn2cccn2)c(N2CCC2)c1` [Example C20, 4-((1H-pyrazol-1-yl)methyl)-3-(azetidin-1-yl)-N-((6-(tert-butyl)-3-methoxypyridin-2-yl)sulfonyl)benzamide], the results for the IC50 in experiment [1], in experiment [2] and in experiment [3] were no more than 10 nM, no more than 5 nM and no more than 5 nM, respectively.

For `COc1ccc(C2(C(F)(F)F)CC2)cc1S(=O)(=O)NC(=O)c1ccc(Cn2cccn2)c(OC)n1` [Example C59, 5-((1H-pyrazol-1-yl)methyl)-6-methoxy-N-((2-methoxy-5-(1-(trifluoromethyl)cyclopropyl)phenyl)sulfonyl)picolinamide], the IC50 in experiment [1] was no more than 10 nM; in experiment [2], no more than 5 nM; in experiment [3], no more than 5 nM.

Regarding `[2H]C([2H])([2H])Oc1nc(C(=O)NS(=O)(=O)c2nc(C(C)(C)C)ccc2OC)ccc1Cn1cccn1` [Example C63, 5-((1H-pyrazol-1-yl)methyl)-N-((6-(tert-butyl)-3-methoxypyridin-2-yl)sulfonyl)-6-(methoxy-d3)picolinamide], the IC50 is no more than 10 nM in experiment [1], no more than 5 nM in experiment [2] and no more than 5 nM in experiment [3].

In the case of `COc1ccc(C(C)(C)C)cc1S(=O)(=O)NC(=O)c1ccc(Cn2cccn2)c(C2CC2)c1` [Example C2, 4-((1H-pyrazol-1-yl)methyl)-N-((5-(tert-butyl)-2-methoxyphenyl)sulfonyl)-3-cyclopropylbenzamide], the IC50 is no more than 10 nM in experiment [1], no more than 5 nM in experiment [2] and no more than 5 nM in experiment [3].

For `COc1ccc(C(C)(C)C)cc1S(=O)(=O)NC(=O)c1ccc(Cn2cccn2)c(N(C)C)c1` [Example C13, 4-((1H-pyrazol-1-yl)methyl)-N-((5-(tert-butyl)-2-methoxyphenyl)sulfonyl)-3-(dimethylamino)benzamide], the IC50 was no more than 10 nM in experiment [1], no more than 5 nM in experiment [2] and no more than 5 nM in experiment [3].

A word on the IC50: it is the concentration needed to halve the response being measured.
